Measured values from US9907795B2, “Method of treatment of chronic cough administering orvepitant in combination with other therapeutic agents” (NeRRe Therapeutics Limited, priority 2016, dated 2018).
Structures can show the parent of a compound that is named as a salt.

What was measured:
Format in all cases: in vivo, human
[1] = system: patients with a diagnosis of chronic treatment-refractory cough; experiment: Objective cough frequency by ambulatory cough monitor, open-label pilot study; conditions: for daytime objective cough frequency, mean change from Baseline: Week 4 (end of treatment) vs Baseline, 30 mg once daily, p<0.001, primary endpoint
Description: (§1) Orvepitant maleate Form 1 was evaluated in an open-label pilot study to determine the efficacy of multiple dosing in male and female patients with a diagnosis of chronic treatment-refractory cough for over 3 months. The study was a single-arm (30 mg orvepitant maleate Form 1 once daily), 4-week study with a 4 week follow-up. There were five scheduled clinic visits; Screening visit, Baseline visit, Week 1 visit, Week 4 visit (end of treatment period) and a Week 8 Follow-up visit. The following instruments were used to assess efficacy: • Subjects were fitted with an ambulatory cough monitor (ACM) to record objective cough frequency over 24 hours at Screening, Weeks 1, 4 and 8 • Cough-specific Quality of Life Questionnaire (CQLQ): Subjects were asked to complete this questionnaire at Screening, Weeks 1, 4 and 8 • Global Rating of Change for Cough Frequency & Severity Scale: Subjects were asked to complete this scale at Weeks 1, 4 and 8 • Cough Severity VAS: Subjects were issued with diaries for daily recording of Cough Severity VAS scores. 13 subjects were enrolled into the study and provided data on cough frequency, Cough QOL, Global Rating of Change for Cough Frequency and Severity, and Cough Severity VAS, but one of the 13 subjects had data missing on cough frequency (day and night) at week 4. The primary endpoint was change in objective daytime cough frequency at the end of the treatment period at Week 4 compared to Baseline.

[2] = system: patients with a diagnosis of chronic treatment-refractory cough; experiment: Global Rating of Change for Cough Frequency & Severity Scale, open-label pilot study
Description: as §1, with “4.” for “4. The primary endpoint was change in objective daytime cough frequency at the end of the treatment period at Week 4 compared to Baseline.”

[3] = system: patients with a diagnosis of chronic treatment-refractory cough; experiment: Cough Severity VAS (daily diary), open-label pilot study
Description: as §1, with “4.” for “4. The primary endpoint was change in objective daytime cough frequency at the end of the treatment period at Week 4 compared to Baseline.”

[4] = system: patients with a diagnosis of chronic treatment-refractory cough; experiment: Cough-specific Quality of Life Questionnaire (CQLQ), open-label pilot study
Description: as §1, with “4.” for “4. The primary endpoint was change in objective daytime cough frequency at the end of the treatment period at Week 4 compared to Baseline.”

With `Cc1cc(F)ccc1[C@H]1C[C@@H](N2CCN3C(=O)CC[C@H]3C2)CCN1C(=O)N(C)[C@H](C)c1cc(C(F)(F)F)cc(C(F)(F)F)c1` [Orvepitant maleate Form 1, 2-(R)-(4-Fluoro-2-methyl-phenyl)-4-(S)-((8aS)-6-oxo-hexahydro-pyrrolo[1,2-α]-pyrazin-2-yl)-piperidine-1-carboxylic acid [1-(R)-(3,5-bis-trifluoromethyl-phenyl)-ethyl]-methylamide maleate] as the compound, how does the “reduction in mean night-time objective cough frequency” value (“reduction” below) ([1]; Week 1 vs Baseline, p=0.19) read?
The value was “no significant reduction”.

What about the “daytime objective cough frequency, mean change from Baseline” value ([1]; negative binomial regression model) of the same compound?
Its value is −18.9 coughs/hr.

And the “daytime objective cough frequency, mean change from Baseline” value [1]?
Its value is −26%.

And the “reduction” value ([1]; Week 4 vs Baseline, p=0.65)?
Its value is “no significant reduction”.

And the “change in daytime objective cough frequency” value ([1]; Week 8 compared to Week 4, p=0.86)?
The value was “no significant change”.

And the “reduction” value ([1]; between Weeks 4 and 8, p=0.10)?
The value was “no significant reduction”.

What about the “Global Rate of Change, cough frequency: subjects who felt worse” value ([2]; Week 1) of the same compound?
Its value is “No subjects felt worse”.

What about the “Global Rate of Change, cough severity: subjects who felt worse” value ([2]; Week 1) of the same compound?
Its value is “No subjects felt worse”.

And the “Global Rate of Change, cough frequency: median improvement score” value ([2]; Week 1, 3 = somewhat better)?
The value was 3.

And the “Global Rate of Change, cough severity: median improvement score” value ([2]; Week 1, 4 = moderately better)?
Its value is 4.

And the “Global Rate of Change, cough frequency: subjects who felt worse” value ([2]; Week 4)?
Its value is “No subjects felt worse”.

What about the “Global Rate of Change, cough severity: subjects who felt worse” value ([2]; Week 4) of the same compound?
Its value is “No subjects felt worse”.

And the “Global Rate of Change, cough frequency: median improvement score” value ([2]; Week 4, 3 = somewhat better)?
Its value is 3.

And the “Global Rate of Change, cough severity: median improvement score” value ([2]; Week 4, 3 = somewhat better)?
Its value is 3.

What about the “night-time cough severity VAS, average change from Baseline” value ([3]; Week 1 of study, p=0.01) of the same compound?
Its value is −14%.

And the “daytime cough severity VAS, average change from Baseline” value ([3]; Week 2 of study, p=0.002)?
Its value is −39%.

And the “daytime cough severity VAS, average change from Baseline” value ([3]; Week 6 of study, p=0.001)?
Its value is −14%.

And the “night-time cough severity VAS, average change from Baseline” value ([3]; Week 6 of study, p=0.017)?
The value was −18%.

And the “CQLQ Overall score, mean change from Baseline” value (shortened to “CQLQ Overall score, mean change”) ([4]; Week 1, p<0.001)?
Its value is −4.0.

What about the “CQLQ Overall score, mean change” value ([4]; Week 4, p=0.005) of the same compound?
The value was −4.4.

What about the “CQLQ Overall score, mean change” value ([4]; Week 8, p=0.033) of the same compound?
The value was −3.4.

And the “CQLQ Extreme Physical domain, change from Baseline” value ([4]; Weeks 1, 4 and 8)?
Its value is “significant changes from Baseline”.

And the “CQLQ Psychosocial domain, change from Baseline” value ([4]; Weeks 1, 4 and 8)?
Its value is “significant changes from Baseline”.

What about the “CQLQ Overall score, difference” value ([4]; between Weeks 4 and 8, p=0.52) of the same compound?
Its value is “no significant difference”.

What about the “CQLQ, any of the domains, change” value ([4]; from Week 4 to Week 8) of the same compound?
The value was “no significant changes”.

And the “CQLQ Emotional domain, change” value ([4]; in vivo)?
Its value is “No significant changes”.
